# What was measured:
# [1] = cited from earlier work
# [2] = system: atypical mycobacterial infection; assay: Same clinical trial: occurrence of atypical mycobacterial infection; type: in vivo, human; settings: rifabutin 300 mg/day; one patient on the placebo arm developed it
# [3] = system: Mycobacterium avium complex (MAC); assay: Multicenter, randomized, placebo controlled clinical trial: prevention or delay of MAC infection in AIDS patients; type: in vivo, human
# M. tuberculosis = assay: Same clinical trial: occurrence of M. tuberculosis infections; type: in vivo, human; settings: rifabutin 300 mg/day; three patients on the placebo arm developed M. tuberculosis infections
# Method: The efficacy of rifabutin on the prevention of MAC disease in HIV positive patients having a CD4 count of ≦200/mm³ was assessed in a large multicenter controlled trial in the United States.
# Five hundred ninety (590) patients with CD4 counts ≦200/mm³; and with no clinical evidence of MAC infection (as determined by two blood cultures) were randomly assigned to receive either rifabutin monotherapy (300 mg/day) or placebo. Nine of these patients, five in the rifabutin group and four in the placebo group, who were enrolled with presumptive negative evidence of MAC blood cultures were subsequently found to have had MAC bacteremia at baseline and were excluded from the study. Fifty-six of the 581 patients who had confirmed negative cultures at baseline developed MAC infection after having enrolled in the study. Eighteen of those 56 patients were in the rifabutin group and the other 38 were in the placebo group. After excluding seven patients from each group who were considered to be inevaluable, the treatment groups were compared with respect to the incidence of MAC infection; the observed difference was highly statistically significant (p=0.002, Chi-squared test).
# Three patients on the placebo arm of the study developed M. tuberculosis infections (other than MAC) while no patients receiving rifabutin developed tuberculosis. […]
smiles,measurement,setting,value
"CO[C@H]1/C=C/O[C@@]2(C)Oc3c(C)c(O)c4c(c3C2=O)C2=NC3(CCN(CC(C)C)CC3)NC2=C(NC(=O)/C(C)=C\C=C\[C@H](C)[C@H](O)[C@@H](C)[C@@H](O)[C@@H](C)[C@H](OC(C)=O)[C@@H]1C)C4=O [rifabutin, 4-dioxo-3,4-[2-spiro-(N-isobutyl-4-piperidyl)-2,5-dihydro-1H-imidazo]-rifamycin S]",Solubility in chloroform,[1]; chloroform,soluble
same,Solubility in methanol,[1]; methanol,soluble
same,Solubility in water,[1]; water,very slightly soluble
same,Patients who developed atypical mycobacterial infection,[2],no patients
same,Patients who developed MAC infection after having enrolled in the study,"[3]; HIV positive patients, CD4 ≦200/mm³, rifabutin monotherapy 300 mg/day oral, of 581 patients with confirmed negative cultures at baseline, before excluding inevaluable patients",Eighteen
same,Time of MAC infection in patients who got a MAC infection,"[3]; analysis by Kaplan/Meier Methodology, compared with placebo",significantly later than patients on placebo
same,Likelihood of placebo patients to die or to experience a MAC event relative to patients receiving rifabutin,"[3]; at any point in time, on average, Kaplan/Meier analysis",2.3 times
same,Number of: Patients without MAC,"[3]; evaluable patients, rifabutin 300 mg/day, group total 280",269
same,Number of: Patients with MAC,"[3]; evaluable patients, rifabutin 300 mg/day, group total 280, vs placebo x^2 = 9.76, P ≅ 0.002",11
same,Patients who developed tuberculosis,M. tuberculosis,no patients

# Reference: patent EP0552018A1, “Use of Rifabutin for delaying or preventing mycobacterial infections” (Erbamont Inc., priority 1992, dated 1993)
